The source of these data is patent US20260216109A1, “TREATMENT OF SKIN DISORDERS WITH SHORT CHAIN FATTY ACIDS” (Temple University-Of The Commonwealth System of Higher …, priority 2023, published 2026).

One assay concerns IL-27. Description: Multiplex (MSD V-PLEX) cytokine release, InflammaSkin: IL-27. The settings on record: Example 2; 0.05% Betamethasone topical; vs untreated InflammaSkin. Type of assay: cell-based, human. On the procedure: A total of 16 biopsies of 15 mm diameter were produced from a single donor. Two NativeSkin® models with 12/15 mm silicon rings were produced from the biopsies according to standard procedures in place, and cultured under cell culture conditions (37° C., 5% CO2, max. humidity) for 7 days with 2 mL of standard NativeSkin® medium renewed every day. Fourteen PSO-InflammaSkin® models with 12/15 mm silicon rings were produced by inducing in situ activation and Th17/Th1 polarization of skin resident T cells with a proprietary cocktail, and cultured under cell culture conditions (37° C., 5% CO2, max. humidity) for 7 days with 2 mL of PSO-InflammaSkin® culture medium renewed every day. […]
(§1) Human pro-inflammatory cytokines released in the supernatant were quantified using the V-PLEX Human IL-17A Kit (MesoScale Discovery, reference: K151RFD-1) and V-PLEX Human custom Pro-inflammatory. […]
(§2) Samples were diluted four times for plate 2 and two times for plate 1. Samples and standards were assessed in duplicate. Plates were read on MesoScale Discovery Quickpleax SQ 120 plate reader and values expressed in pg/mL.
(§3) A statistical analysis was performed. […] First, the distribution's normality of the two compared group was assessed. […] If the two distributions were normal, the homogeneity of variances was assessed using a Fisher test on the variances. […]

In another assay the test system is TNF-α. Description: Multiplex (MSD V-PLEX) cytokine release, InflammaSkin: TNF-α. Type of assay: cell-based, human. The conditions noted are these: Example 1; Day 7 supernatant; SCFA (45 μg/mL Ca-propionate + 1 mM Ca-/Mg-butyrate) systemic, 0.05% Betamethasone topical; vs untreated InflammaSkin. The procedure: (§4) A total of 16 biopsies of 15 mm diameter were produced from a single donor. Two NativeSkin® models with 12/15 mm silicon rings were produced from the biopsies according to standard procedures in place, and cultured under cell culture conditions (37° C., 5% CO2, max. humidity) for 7 days with 2 mL of standard NativeSkin® medium renewed every day. Fourteen PSO-InflammaSkin® models with 12/15 mm silicon rings were produced by inducing in situ activation and Th17/Th1 polarization of skin resident T cells with a proprietary cocktail, and cultured under cell culture conditions (37° C., 5% CO2, max. humidity) for 7 days with 2 mL of PSO-InflammaSkin® culture medium renewed every day.
(§5) From Day 1 to Day 6, models were systemically treated with 1 μM Otezla or Short Chain Fatty Acids (SCFAs), or topically treated with positive control 0.05% Betamethasone
(§6) In these experiments, the SCFAs administered were 45 μg/mL of Ca-propionate and 1 mM mixture of salts (Ca-butyrate and Mg-butyrate).
At Day 7, supernatants were collected and stored at −80° C. and skin models of all conditions were carefully unmolded. Skin biopsies were re-punched to eliminate the area under the silicon ring, fixed in 10% buffered formalin and processed for paraffin wax embedding.
Human pro-inflammatory cytokines released in the supernatant were quantified using the V-PLEX Human IL-17A Kit (MesoScale Discovery, reference: K151RFD-1) and V-PLEX Human TNFα Kit (MesoScale Discovery, reference: K151QWD-1). Values are expressed in pg/mL. For each condition, single values, mean and SEM were plotted using GraphPad Prism. Statistical analysis was performed using a One Way ANOVA test.
PSO-InflammaSkin® models were cultured and treated as described in Example 1. In these experiments, the SCFAs administered were 45 μg/mL of Ca-propionate and 1 mM mixture of salts (Ca-butyrate and Mg-butyrate).
Human pro-inflammatory cytokines released in the supernatant were quantified using the V-PLEX Human IL-17A Kit (MesoScale Discovery, reference: K151RFD-1) and V-PLEX Human custom Pro-inflammatory. Plate 1 comprised Proinflammatory Panel 1 (human) kit reference K15049 (panel IFN-γ and TNF-α). Plate 2 comprised TH17 Panel 1 (human) kit reference K15049 (panel IL-17A Gen B, IL-21, IL-22, IL-23, IL-27, IL-31, MIP-3α).
as §2
A statistical analysis was performed. Each condition was compared to the untreated InflammaSkin® condition. First, the distribution's normality of the two compared group was assessed. […] If the two distributions were normal, the homogeneity of variances was assessed using a Fisher test on the variances. […]

The test system of another assay is IL-17A. Description: Multiplex (MSD V-PLEX) cytokine release, InflammaSkin: IL-17A. The conditions noted are these: Example 1; Day 7 supernatant; 1 μM Otezla or SCFA (45 μg/mL Ca-propionate + 1 mM Ca-/Mg-butyrate) systemic, 0.05% Betamethasone topical; vs untreated InflammaSkin. Type of assay: cell-based, human. On the procedure:
as §4, §5, §6
At Day 7, supernatants were collected and stored at −80° C. and skin models of all conditions were carefully unmolded. […]
Human pro-inflammatory cytokines released in the supernatant were quantified using the V-PLEX Human IL-17A Kit (MesoScale Discovery, reference: K151RFD-1) and V-PLEX Human TNFα Kit (MesoScale Discovery, reference: K151QWD-1). […]
as §1, §2, §3

The subject of assay [1] is imiquimod (IMQ)-induced psoriasis model mice. Description: Transepidermal water loss (TEWL) on back skin, IMQ-induced psoriasis model in mice. Type of assay: in vivo, mouse. The conditions noted are these: Example 4, day 5, Apremilast 25 mg/kg BID p.o., SCFA fixed dose BID p.o., Etanercept 10 mg/kg Q3D s.c. On the procedure:
Topical application of IMQ, a TLR7/8 ligand and potent immune activator induced and exacerbated psoriasis in mice. The mouse IMQ-induced psoriasis (IMQ Ps) model was initiated by a repeated topical application of Aldara© cream (containing 5% IMQ) over 6 consecutive days. Female Balb/c mice (9 weeks of age at reception, ordered with 20 g, Charles River, Sulzfeld, Germany; n=10 mice/group, exception healthy controls n=4) received daily a topical application of 62.5 mg of commercially available IMQ cream (5% Aldara©) on the beforehand (day −1) shaved (~2 cm×3 cm), depilated (Pilka© cream) back skin, and 7 mg on the outer right ear skin for 6 consecutive days, translating in a daily dose of approximately 3.5 mg IMQ. Healthy control mice were included in the study and were treated with vehicle cream (Vaseline; Bombastus-Werke AG) only instead of IMQ. Additionally, an IMQ disease control group was also included.
Physiological parameter transepidermal water loss (TEWL; in g/m^2/h) was tested and evaluated on back skin at day 5 by a Tewameter (TM300, Courage and Khazaka, Cologne, Germany) during the IMQ psoriasis experiment. TEWL is a common examined parameters for the assessment of a disturbed skin function present in psoriatic skin. TEWL may be used a diagnostic marker in the clinics to accurately assess the disease severity in psoriasis.

Turning to `C[C@H]1C[C@H]2[C@@H]3CCC4=CC(=O)C=C[C@]4(C)[C@@]3(F)[C@@H](O)C[C@]2(C)[C@@]1(O)C(=O)CO` [Betamethasone], the “increase of IL-27 cytokine secretion” value in the assay on IL-27 is given as “about 30%”. In the assay on TNF-α, the “TNF-α levels decreased by” value was ~ 40%. Also, the “IL-17A levels decreased by” value in the assay with IL-17A was “about 70%”.
Regarding Etanercept, the “transepidermal water loss (TEWL)” value in assay [1] was “did not show significant effects”.
